Where two headings read alike, the source gives them in different places.
Tests used:
[1] = molecular target: T1, human enzyme NAMPT (full length) (Homo sapiens, UniProt P43490); assay: NMN fluorescence biochemical assay (stimulation of NMN synthesis by NAMPT); details: for EC50: concentration giving half-maximal activation, read-out: Enzymatic EC50; for Enzymatic Emax: fold change of maximal activation compared to DMSO
T1 construct: human enzyme NAMPT (full length)
Method in brief: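 Full-length human NAMPT (100 nM) was preincubated 15 min at 37 °C with compound in 50 mM Tris-HCl pH 7.5, 10 mM MgCl2, 2 mM DTT, then reacted 1 h at 37 °C with 50 μM NAM, 100 μM PRPP, 4 mM ATP (stated solution concentrations). NMN was derivatised with acetophenone/KOH then formic acid and read at Ex/Em 382/445 nm; EC50 and Emax (fold over DMSO) reported.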

[2] = system: endogenous NAMPT in U2OS cells; assay: Cellular NAD+ modulation assay (NAD/NADH-Glo, U2OS cells); type: cell-based; details: Homo sapiens; for maximal fold induction: read-out: Cellular Emax
Method in brief: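 Endogenous NAMPT stimulation in U2OS cells treated with compound dilution series for 24 h at 37 °C. Cells lysed with DTAB base, acid-treated 15 min at 60 °C, neutralized, NAD+ read by NAD/NADH-Glo luminescence after 40 min at room temperature. EC50 and Emax (fold over DMSO) derived.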

[3] = NMN fluorescence assay, purified human NAMPT 100 nM
[4] = 24 hours incubation, cellular NAD+
[5] = NMN synthesis by purified human NAMPT (100 nM)
[6] = 24 hours incubation with compound

T1 sequence (P43490 whole entry): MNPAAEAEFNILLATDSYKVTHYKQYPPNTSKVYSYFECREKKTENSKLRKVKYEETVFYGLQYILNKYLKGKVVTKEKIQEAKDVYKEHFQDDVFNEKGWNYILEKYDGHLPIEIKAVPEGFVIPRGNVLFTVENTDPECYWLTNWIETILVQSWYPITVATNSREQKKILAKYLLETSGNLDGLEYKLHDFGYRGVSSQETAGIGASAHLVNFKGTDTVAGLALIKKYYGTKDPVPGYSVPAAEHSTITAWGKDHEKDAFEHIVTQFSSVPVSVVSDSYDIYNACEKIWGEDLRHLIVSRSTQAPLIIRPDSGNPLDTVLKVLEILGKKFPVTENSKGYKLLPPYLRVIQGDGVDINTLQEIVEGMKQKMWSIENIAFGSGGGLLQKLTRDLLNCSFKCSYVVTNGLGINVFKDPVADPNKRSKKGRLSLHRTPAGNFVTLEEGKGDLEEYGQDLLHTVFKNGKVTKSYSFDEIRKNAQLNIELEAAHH

Row | SMILES | EC50 [1, 3] [µM] | Enzymatic Emax [1] | EC50 [2, 4] [µM] | EC50 [1, 5] [µM] | EC50 [2, 6] [µM] | maximal fold induction [2, 4] | maximal fold induction [2, 6]
1 | O=C1c2ccccc2C(Cc2ncccc2Br)N1CCc1cn[nH]c1 (stereo not shown) [Compound 475, 2-(2-(1H-pyrazol-4-yl)ethyl)-3-((3-bromopyridin-2-yl)methyl)isoindolin-1-one] | 0.5 to 5 | C (2≥C) | 0.5 to 5 |  |  | 1.2 to 1.5 | 
2 | Cn1ncc(Cl)c1CC1c2cc(F)ccc2C(=S)N1CC1CC2(CNC(=O)O2)C1 (stereo not shown) [Compound 521, 2-((3-((4-chloro-1-methyl-1H-pyrazol-5-yl)methyl)-5-fluoro-1-thioxoisoindolin-2-yl)methyl)-5-oxa-7-azaspiro[3.4]octan-6-one] | < 0.5 | B (3≥B>2) | 0.5 to 5 |  |  | > 1.5 | 
3 | COc1ccc(CN2C(=O)c3ccccc3C2Cc2c(C#N)ccnc2C#N)cn1 (stereo not shown) [Compound 598, 3-((2-((6-methoxypyridin-3-yl)methyl)-3-oxoisoindolin-1-yl)methyl)pyridine-2,4-dicarbonitrile] | 0.5 to 5 | B (3≥B>2) | 0.5 to 5 |  |  | > 1.5 | 
4 | Cn1ncc(Cl)c1CC1c2ccccc2C(=O)N1C[C@@H]1C[C@@H]1c1c[nH]nn1 (relative stereo) [Compound 604, cis 2-((2-(1H-1,2,3-triazol-4-yl)cyclopropyl)methyl)-3-((4-chloro-1-methyl-1H-pyrazol-5-yl)methyl)isoindolin-1-one] | ≥ 5 | C (2≥C) | 5 to 50 |  |  | ≤ 1.2 | 
5 | Cn1ncc(Cl)c1CC1c2ccccc2C(C)(C)N1Cc1ccc2[nH]nnc2c1 (stereo not shown) [Compound 608, 5-((3-((4-chloro-1-methyl-IH-pyrazol-5-yl)methyl)-1,1-dimethylisoindolin-2-yl)methyl)-1H-benzo[d][1,2,3]triazole] | < 0.5 | A (A>3) | 0.5 to 5 |  |  | > 1.5 | 
6 | COc1cnc(CN2C(=O)c3ccccc3C2Cc2c(Cl)cnn2C)cc1F (stereo not shown) [Compound 555, 3-((4-chloro-1-methyl-1H-pyrazol-5-yl)methyl)-2-((4-fluoro-5-methoxypyridin-2-yl)methyl)isoindolin-1-one] | ≥ 5 | B (3≥B>2) | < 0.5 |  |  | > 1.5 | 
7 | Cn1ncc(Cl)c1CC1c2ccccc2C(=O)N1Cc1ccc(Cl)cc1 (stereo not shown) [Compound 573, 3-((4-chloro-1-methyl-1H-pyrazol-5-yl)methyl)-2-(4-chlorobenzyl)isoindolin-1-one] | ≥ 5 | C (2≥C) | 5 to 50 |  |  | ≤ 1.2 | 
8 | Cn1ncc(Cl)c1CC1c2ccccc2C(=O)N1Cc1cc(=O)[nH]o1 (stereo not shown) [Compound 602, 5-((1-((4-chloro-1-methyl-1H-pyrazol-5-yl)methyl)-3-oxoisoindolin-2-yl)methyl)isoxazol-3(2H)-one] | ≥ 5 | B (3≥B>2) | 0.5 to 5 |  |  | > 1.5 | 
9 | O=C1NC(=O)C2(CC(CN3C(=O)c4ccccc4C3Cc3ncccc3Br)C2)O1 (stereo not shown) [Compound 476, 2-((1-((3-bromopyridin-2-yl)methyl)-3-oxoisoindolin-2-yl)methyl)-5-oxa-7-azaspiro[3.4]octane-6,8-dione] | ≥ 5 | B (3≥B>2) | 5 to 50 |  |  | > 1.5 | 
10 | Cc1cccc2c1CN(Cc1ccc(O)cc1)C2=O [Compound 34, 2-(4-hydroxybenzyl)-4-methylisoindolin-1-one] |  | B (3≥B>2) |  | 0.5 to 5 | 0.5 to 5 |  | 1.2 to 1.5
11 | Cn1ncc(Cl)c1CC1c2ccccc2C(C)(C)N1Cc1cnc(O)s1 (stereo not shown) [Compound 614, 5-((3-((4-chloro-1-methyl-1H-pyrazol-5-yl)methyl)-1,1-dimethylisoindolin-2-yl)methyl)thiazol-2-ol] | 0.5 to 5 | B (3≥B>2) | 5 to 50 |  |  | ≤ 1.2 | 
12 | Cn1ncc(Cl)c1C[C@H]1c2ccccc2C(=O)N1C/C=C/c1c[nH]nn1 [Compound 312, (S,E)-2-(3-(1H-1,2,3-triazol-4-yl)allyl)-3-((4-chloro-1-methyl-1H-pyrazol-5-yl)methyl) isoindolin-1-one] |  | B (3≥B>2) |  | < 0.5 | < 0.5 |  | > 1.5

More lines, main results first:

Row | EC50 [1, 3] [µM] | Enzymatic Emax [1] | EC50 [2, 4] [µM] | EC50 [1, 5] [µM] | EC50 [2, 6] [µM] | SMILES | maximal fold induction [2, 4] | maximal fold induction [2, 6]
13 | 0.5 to 5 | A (A>3) | 0.5 to 5 |  |  | O=C1c2ccccc2C(Cc2ncccc2Br)N1Cc1ccc(=O)[nH]c1 (stereo not shown) [Compound 322, 3-((3-bromopyridin-2-yl)methyl)-2-((6-oxo-1,6-dihydropyridin-3-yl)methyl)isoindolin-1-one] | > 1.5 | 
14 | 0.5 to 5 | A (A>3) | 0.5 to 5 |  |  | Cn1ncc(Cl)c1CC1c2c(Cl)cccc2C(=O)N1Cc1ccc2[nH]nnc2c1 (stereo not shown) [Compound 339, 2-((1H-benzo[d][1,2,3]triazol-5-yl)methyl)-4-chloro-3-((4-chloro-1-methyl-1H-pyrazol-5-yl)methyl)isoindolin-1-one] | > 1.5 | 
15 |  | B (3≥B>2) |  | ≥ 5 | 0.5 to 5 | CC1c2cc(CN(C)C)ccc2C(=O)N1Cc1ccc2[nH]c(=O)oc2c1 (single isomer, unassigned) [Compound 273] |  | 1.2 to 1.5
16 |  | A (A>3) |  | ≥ 5 | 0.5 to 5 | CC1c2ccccc2C(=O)N1Cc1ccc2[nH]c(=O)oc2c1 (stereo not shown) [Compound 54, 6-((1-methyl-3-oxoisoindolin-2-yl)methyl)benzo[d]oxazol-2(3H)-one] |  | > 1.5
17 |  | A (A>3) |  | ≥ 5 | < 0.5 | CC1c2cc(NC3CC4(CNC4)C3)ccc2C(=O)N1Cc1ccc2[nH]c(=O)oc2c1 (stereo not shown) [Compound 79, 6-((5-((2-azaspiro[3.3]heptan-6-yl)amino)-3-methyl-1-oxoisoindolin-2-yl)methyl)benzo[d]oxazol-2(3H)-one] |  | ≤ 1.2
18 | < 0.5 | B (3≥B>2) | < 0.5 |  |  | N#Cc1ccnc(C#N)c1CC1c2ccccc2C(=O)N1CC1CC2(CNC(=O)O2)C1 (stereo not shown) [Compound 446, 3-((3-oxo-2-((6-oxo-5-oxa-7-azaspiro[3.4]octan-2-yl)methyl)isoindolin-1-yl)methyl)pyridine-2,4-dicarbonitrile] | > 1.5 | 
19 |  | B (3≥B>2) |  | ≥ 5 | 5 to 50 | CCC1c2ccccc2C(=O)N1Cc1ccc2[nH]c(=O)oc2c1 (stereo not shown) [Compound 53, 6-((1-ethyl-3-oxoisoindolin-2-yl)methyl) benzo[d]oxazol-2(3H)-one] |  | 1.2 to 1.5
20 | 0.5 to 5 | B (3≥B>2) | 0.5 to 5 |  |  | Cc1nc(Cl)c(CC2c3ccccc3C(=O)N2CC2CC3(CNC(=O)O3)C2)n1C (stereo not shown) [Compound 526, 2-((1-((4-chloro-1,2-dimethyl-1H-imidazol-5-yl)methyl)-3-oxoisoindolin-2-yl)methyl)-5-oxa-7-azaspiro[3.4]octan-6-one] | > 1.5 | 
21 | 0.5 to 5 | B (3≥B>2) | < 0.5 |  |  | Cc1ccnc(C#N)c1CC1c2ccc(F)cc2C(=O)N1CC1CC2(CNC(=O)O2)C1 (stereo not shown) [Compound 449, 3-((5-fluoro-3-oxo-2-((6-oxo-5-oxa-7-azaspiro[3.4]octan-2-yl)methyl)isoindolin-1-yl)methyl)-4-methylpicolinonitrile] | > 1.5 | 
22 | < 0.5 | B (3≥B>2) | < 0.5 |  |  | COc1nn(C)c(CC2c3ccccc3C(=O)N2CC2CC3(CNC(=O)O3)C2)c1Cl (stereo not shown) [Compound 451, 2-((1-((4-chloro-3-methoxy-1-methyl-1H-pyrazol-5-yl)methyl)-3-oxoisoindolin-2-yl)methyl)-5-oxa-7-azaspiro[3.4]octan-6-one] | > 1.5 | 
23 |  | B (3≥B>2) |  | < 0.5 | < 0.5 | N#Cc1cccc(F)c1C[C@H]1c2ccccc2C(=O)N1Cc1ccc2[nH]c(=O)oc2c1 [Compound 172, (S)-3-fluoro-2-((3-oxo-2-((2-oxo-2,3-dihydrobenzo[d]oxazol-6-yl)methyl)isoindolin-1-yl)methyl)benzonitrile] |  | > 1.5
24 | 0.5 to 5 | B (3≥B>2) | 0.5 to 5 |  |  | Cn1ncc(Cl)c1CC1c2cc(C(C)(C)O)ccc2C(=O)N1Cc1ccc2[nH]nnc2c1 (stereo not shown) [Compound 382, 2-((1H-benzo[d][1,2,3]triazol-5-yl)methyl)-3-((4-chloro-1-methyl-1H-pyrazol-5-yl)methyl)-5-(2-hydroxypropan-2-yl)isoindolin-1-one] | > 1.5 | 
25 | 0.5 to 5 | B (3≥B>2) | 0.5 to 5 |  |  | Cn1ncc(Cl)c1CC1c2cc(CN3CCOCC3)ccc2C(=O)N1CC1CC2(CNC(=O)O2)C1 (stereo not shown) [Compound 461, 2-((3-((4-chloro-1-methyl-1H-pyrazol-5-yl)methyl)-5-(morpholinomethyl)-1-oxoisoindolin-2-yl)methyl)-5-oxa-7-azaspiro[3.4]octan-6-one] | > 1.5 | 
